Measurements published in patent US20080312581A1, “Peptosomes for Use in Acoustically Mediated Intracellular Drug Delivery in vivo” (Biovaluation & Analysis, Inc., priority 2007, published 2008).

Test system: Henrietta Lacks (HeLa) cells and human aortic smooth muscle cells (AoSMC)
Assay: Ultrasound-mediated peptosome rupture and intracellular calcein delivery, flow cytometry
Assay type: cell-based
Settings: calcein released from peptosomes, contrast agent present
Text: Ultrasound. Ultrasonic energy is produced using an immersible, focused, piezoceramic transducer. In this experimental system, two different matching resistance networks are necessary, allowing production of sound at 1.0 MHz and 3.0 MHz, similar to a method known in the art (Guzmán et al., 2001a, 2001b, 2002, and 2003; and […] et al., 2006). A sinusoidal waveform is produced by, for example, programmable waveform generators (Stanford Research Instruments, Sunnyvale, Calif.) used in conjunction to control pulse length, frequency, and peak-to-peak voltage. The sinusoidal waveform is amplified by an RF broadband power amplifier (Electronic Navigation Industries, Rochester, N.Y.) before passing through a matching network and controlling the response of the transducer. The transducer is housed in a polycarbonate tank (FIG. 11 [601]) -34.5×32×40 cm; containing approximately 34 liters of deionized, distilled, and partially degassed water at room temperature (i.e., 22° C. to 23° C.). A thick acoustic absorber is mounted opposite the transducer to minimize standing-wave formation (not illustrated). […] A metal rod (606) is immediately inserted into the open end of the sample chamber and then attached to the three-axis positioning system (603), placing the sample in the desired location as determined by the hydrophone (604). […]

SMILES: O=C(O)CN(CC(=O)O)Cc1cc2c(cc1O)Oc1cc(O)c(CN(CC(=O)O)CC(=O)O)cc1C21OC(=O)c2ccccc21 [calcein, Calcein]
- calcein uptake into cells (mild ultrasound conditions): low levels
- calcein uptake into cells (moderate ultrasound conditions): as many as one-third of cells
